For one assay, the target named is PDGFRβ (Rattus norvegicus (Rat), UniProt Q05030). The assay can be described thus: PDGFRβ Cellular Assay (PDGFRb P-Y751 HTRF in A10 cells stimulated with PDGF-BB). The format is cell-based. The following applies: read-out: PDGFR Cellular IC50. The method in brief: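 Rat A10 cells, plated overnight, were treated with compound for 3 hours, then stimulated with PDGF-BB (working stock 100 ng/mL in 10% FBS medium). After lysis, PDGFRβ P-Y751 was detected by HTRF.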
In general terms: In TR-FRET formats the signal depends on donor and acceptor labels being close together.

For assay [1], the target named is His6-TEV-PDGFRβ (557-1016) (Homo sapiens (Human), UniProt P09619). Description: PDGFRβ HTRF Assay. It counts as biochemical. The following applies: read-out: PDGFR HTRF IC50. The method in brief:
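Human PDGFRβ (557-1016) pre-incubated with compound for 30 min at RT in pH 7.5 HEPES/MgCl2/EGTA/Brij-35/DTT buffer. Reaction started with ATP and TK-biotin peptide, run 3 h at RT, then quenched with EDTA-containing Eu-cryptate antibody/streptavidin-XL665. HTRF 665/620 nm ratio read after 60 min; percent inhibition relative to DMSO and 10 μM imatinib controls.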

Broadly, the IC50 is the midpoint of a concentration-inhibition curve.

Chain of PDGFRβ (Q05030 32-1097): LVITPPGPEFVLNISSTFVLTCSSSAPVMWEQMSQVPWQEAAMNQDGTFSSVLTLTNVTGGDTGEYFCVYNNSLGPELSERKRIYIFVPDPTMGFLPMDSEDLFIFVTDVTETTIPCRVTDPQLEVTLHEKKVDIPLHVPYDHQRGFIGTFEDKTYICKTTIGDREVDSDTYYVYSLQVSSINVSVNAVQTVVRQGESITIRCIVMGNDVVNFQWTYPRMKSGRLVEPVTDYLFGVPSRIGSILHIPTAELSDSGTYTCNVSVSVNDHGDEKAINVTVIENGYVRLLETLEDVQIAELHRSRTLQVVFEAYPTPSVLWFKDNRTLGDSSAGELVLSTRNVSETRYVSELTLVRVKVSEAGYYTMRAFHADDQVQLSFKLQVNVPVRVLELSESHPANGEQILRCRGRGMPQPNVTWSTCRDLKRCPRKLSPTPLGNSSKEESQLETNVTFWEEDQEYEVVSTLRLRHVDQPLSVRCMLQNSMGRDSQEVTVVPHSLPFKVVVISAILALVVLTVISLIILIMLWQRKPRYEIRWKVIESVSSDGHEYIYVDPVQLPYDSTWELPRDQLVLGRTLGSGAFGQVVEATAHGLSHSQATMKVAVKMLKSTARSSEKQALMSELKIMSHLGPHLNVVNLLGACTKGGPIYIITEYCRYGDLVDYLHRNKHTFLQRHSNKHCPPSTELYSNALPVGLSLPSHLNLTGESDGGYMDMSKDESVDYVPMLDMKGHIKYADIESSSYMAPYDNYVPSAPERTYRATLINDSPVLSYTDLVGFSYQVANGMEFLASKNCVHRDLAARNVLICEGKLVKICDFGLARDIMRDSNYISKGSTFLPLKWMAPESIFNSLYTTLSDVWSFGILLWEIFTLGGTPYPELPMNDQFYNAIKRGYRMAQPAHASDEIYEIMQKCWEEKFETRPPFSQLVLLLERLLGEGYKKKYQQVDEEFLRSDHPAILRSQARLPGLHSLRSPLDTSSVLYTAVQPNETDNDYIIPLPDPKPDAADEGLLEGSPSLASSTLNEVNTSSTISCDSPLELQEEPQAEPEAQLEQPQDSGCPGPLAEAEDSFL
Chain of His6-TEV-PDGFRβ (557-1016) (P09619 557-1016): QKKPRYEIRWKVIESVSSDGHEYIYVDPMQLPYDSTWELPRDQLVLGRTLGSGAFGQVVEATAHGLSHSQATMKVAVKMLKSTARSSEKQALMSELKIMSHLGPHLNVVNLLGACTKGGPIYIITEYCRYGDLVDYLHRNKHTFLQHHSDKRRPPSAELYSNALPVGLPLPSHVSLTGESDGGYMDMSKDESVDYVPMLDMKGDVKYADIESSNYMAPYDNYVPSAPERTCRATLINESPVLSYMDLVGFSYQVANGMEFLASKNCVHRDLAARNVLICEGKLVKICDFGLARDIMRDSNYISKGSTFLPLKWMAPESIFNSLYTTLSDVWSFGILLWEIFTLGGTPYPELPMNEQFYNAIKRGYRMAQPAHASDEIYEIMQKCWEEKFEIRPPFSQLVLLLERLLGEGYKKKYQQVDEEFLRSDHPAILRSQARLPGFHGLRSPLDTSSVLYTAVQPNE

In the case of `Cc1ncc(NC(=O)CN2CC(C)(C)C2)cc1NC(=O)c1cnn2cc(-c3cnn4c3COCC4)sc12` [Example 476, 2-(6,7-dihydro-4H-pyrazolo[5,1-c][1,4]oxazin-3-yl)-N-(5-(2-(3,3-dimethylazetidin-1-yl)acetamido)-2-methylpyridin-3-yl)pyrazolo[5,1-b]thiazole-7-carboxamide], the IC50 was 4.9 nM at PDGFRβ and 0.2 nM in assay [1].

Take `Cc1ncc(C(=O)NCCN2CC3CCC2CC3)cc1NC(=O)c1cnn2cc(-c3cnn4c3OCCC4)sc12` [Example 477, N-(5-((2-(2-azabicyclo[2.2.2]octan-2-yl)ethyl)carbamoyl)-2-methylpyridin-3-yl)-2-(6,7-dihydro-5H-pyrazolo[5,1-b][1,3]oxazin-3-yl)pyrazolo[5,1-b]thiazole-7-carboxamide]: the IC50 at PDGFRβ came out at 45.5 nM; in assay [1], 0.3 nM.

Consider `Cc1ncc(C(=O)NCCN2CCCC23CCC3)cc1NC(=O)c1cnn2cc(-c3cnn4c3OCCC4)sc12` [Example 478, N-(5-((2-(5-azaspiro[3.4]octan-5-yl)ethyl)carbamoyl)-2-methylpyridin-3-yl)-2-(6,7-dihydro-5H-pyrazolo[5,1-b][1,3]oxazin-3-yl)pyrazolo[5,1-b]thiazole-7-carboxamide], for which the 50% inhibitory concentration (IC50) was determined as 4.6 nM on PDGFRβ and 0.3 nM in assay [1].

As to `Cc1ncc(C(=O)NCCN2CC(C)(C)C2)cc1NC(=O)c1cnn2cc(-c3cnn4c3OCCC4)sc12` [Example 479, 2-(6,7-dihydro-5H-pyrazolo[5,1-b][1,3]oxazin-3-yl)-N-(5-((2-(3,3-dimethylazetidin-1-yl)ethyl)carbamoyl)-2-methylpyridin-3-yl)pyrazolo[5,1-b]thiazole-7-carboxamide], the IC50 on PDGFRβ is 97.1 nM; in assay [1], 0.3 nM.

Turning to `Cc1ncc(C(=O)NCCN2CC3CCC2CC3)cc1NC(=O)c1cnn2cc(-c3cnn4c3CCC4)sc12` [Example 480, N-(5-((2-(2-azabicyclo[2.2.2]octan-2-yl)ethyl)carbamoyl)-2-methylpyridin-3-yl)-2-(5,6-dihydro-4H-pyrrolo[1,2-b]pyrazol-3-yl)pyrazolo[5,1-b]thiazole-7-carboxamide], the values for the IC50 (on PDGFRβ; in assay [1]) were 19.5 nM and 0.3 nM, respectively.

Regarding `Cc1ncc(C(=O)NCCN2CCCC2(C)C)cc1NC(=O)c1cnn2cc(-c3cnn4c3CCC4)sc12` [Example 481, 2-(5,6-dihydro-4H-pyrrolo[1,2-b]pyrazol-3-yl)-N-(5-((2-(2,2-dimethylpyrrolidin-1-yl)ethyl)carbamoyl)-2-methylpyridin-3-yl)pyrazolo[5,1-b]thiazole-7-carboxamide], the IC50 on PDGFRβ worked out at 3.9 nM; in assay [1], 0.3 nM.

For the compound `Cc1ncc(C(=O)NCCN2CC(C)(C)C2)cc1NC(=O)c1cnn2cc(-c3cnn4c3CCC4)sc12` [Example 482, 2-(5,6-dihydro-4H-pyrrolo[1,2-b]pyrazol-3-yl)-N-(5-((2-(3,3-dimethylazetidin-1-yl)ethyl)carbamoyl)-2-methylpyridin-3-yl)pyrazolo[5,1-b]thiazole-7-carboxamide], the results for the IC50 (at PDGFRβ; in assay [1]) were 28.6 nM and 0.2 nM, respectively.
